Laboratory results published in ChEMBL document CHEMBL4118021, “Studies of TAK1-centered polypharmacology with novel covalent TAK1 inhibitors” (Bioorg Med Chem, 2017).
Calls of active or inactive are those of the source.

How the values were obtained:
[1] = target: Ketosamine-3-kinase (Homo sapiens) (UniProt Q9HA64); experiment: Binding affinity to FN3KRP in human NCI-H358 cells at 1 uM by mass spectrometry based pull down assay; type: cell-based
[2] = target: T1, 80S Ribosome (Homo sapiens) (UniProt P08865+P42677+P62753+P15880+P23396+P61247+P62701+P22090+P46782+P62081+P62241+P46781+P46783+P62280+P25398+P62277+P62263+P62841+P62244+P62249+P08708+P62269+P39019+P60866+P63220+P62266+P62847+P62851+P62854+P62979+P62857+P62273+P62861+P39023+P36578+P46777+Q02878+P18124+P62424+P62917+P32969+P27635+P62906+P62913+P30050+P26373+P40429+P50914+P61313+P18621+Q07020+Q02543+P84098+P46778+P35268+P62829+P62750+P83731+P61254+P61353+P46776+P46779+P47914+P62888+P62899+P62910+P49207+P42766+P18077+Q9Y3U8+P83881+P61927+P61513+P63173+P62891+P62945+P05388+P05386); experiment: Binding affinity to RPS26 in human NCI-H23 cells at 1 uM by mass spectrometry based pull down assay; type: cell-based
[3] = target: T1, 80S Ribosome (Homo sapiens); experiment: Binding affinity to RPL9 in human NCI-H358 cells at 1 uM by mass spectrometry based pull down assay; type: cell-based
[4] = target: T2, Dual specificity mitogen-activated protein kinase kinase 7 (Homo sapiens) (UniProt O14733); experiment: Binding affinity to MAP2K7 in human NCI-H23 cells at 1 uM by mass spectrometry based pull down assay; type: cell-based
T2 sequence (whole entry): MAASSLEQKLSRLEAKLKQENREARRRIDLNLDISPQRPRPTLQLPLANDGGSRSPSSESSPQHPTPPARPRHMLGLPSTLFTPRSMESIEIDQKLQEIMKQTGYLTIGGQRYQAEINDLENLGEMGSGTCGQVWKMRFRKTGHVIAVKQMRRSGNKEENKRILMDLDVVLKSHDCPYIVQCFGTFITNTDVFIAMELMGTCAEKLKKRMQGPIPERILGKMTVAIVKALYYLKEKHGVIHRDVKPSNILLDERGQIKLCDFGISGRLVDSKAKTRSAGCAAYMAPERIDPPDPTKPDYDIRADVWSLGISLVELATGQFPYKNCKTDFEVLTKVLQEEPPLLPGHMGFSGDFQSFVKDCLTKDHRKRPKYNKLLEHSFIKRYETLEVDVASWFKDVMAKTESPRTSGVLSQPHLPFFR

[5] = target: T3, Mitogen-activated protein kinase kinase kinase 7 (Homo sapiens) (UniProt O43318); experiment: Binding affinity to MAP3K7 in human NCI-H23 cells at 1 uM by mass spectrometry based pull down assay; type: cell-based
T3 sequence (whole entry): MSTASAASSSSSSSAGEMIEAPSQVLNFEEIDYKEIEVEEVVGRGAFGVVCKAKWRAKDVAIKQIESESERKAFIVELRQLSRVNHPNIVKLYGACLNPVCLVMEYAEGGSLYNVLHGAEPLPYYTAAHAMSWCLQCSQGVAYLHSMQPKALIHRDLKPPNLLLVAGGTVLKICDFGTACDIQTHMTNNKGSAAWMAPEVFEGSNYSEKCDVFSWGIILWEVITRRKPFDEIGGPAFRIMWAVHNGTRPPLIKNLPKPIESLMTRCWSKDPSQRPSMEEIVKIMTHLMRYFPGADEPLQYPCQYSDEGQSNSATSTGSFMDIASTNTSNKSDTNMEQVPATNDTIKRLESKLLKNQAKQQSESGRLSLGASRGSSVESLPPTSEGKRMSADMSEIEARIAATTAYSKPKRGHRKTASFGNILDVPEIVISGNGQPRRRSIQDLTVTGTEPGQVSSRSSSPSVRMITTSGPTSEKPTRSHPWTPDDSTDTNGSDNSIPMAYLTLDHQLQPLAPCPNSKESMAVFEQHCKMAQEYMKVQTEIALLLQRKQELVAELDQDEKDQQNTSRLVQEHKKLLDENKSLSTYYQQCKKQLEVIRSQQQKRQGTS

[6] = target: 6-phosphogluconate dehydrogenase, decarboxylating (Homo sapiens) (UniProt P52209); experiment: Binding affinity to PGD in human NCI-H358 cells at 1 uM by mass spectrometry based pull down assay
[7] = target: Multifunctional protein CAD (Homo sapiens) (UniProt P27708); experiment: Binding affinity to CAD in human NCI-H358 cells at 1 uM by mass spectrometry based pull down assay; type: cell-based
[8] = target: RNA-binding protein 3 (Homo sapiens) (UniProt P98179); experiment: Binding affinity to RBM3 in human NCI-H23 cells at 1 uM by mass spectrometry based pull down assay; type: cell-based
[9] = target: Protein phosphatase 1G (Homo sapiens) (UniProt O15355); experiment: Binding affinity to PPM1G in human NCI-H23 cells at 1 uM by mass spectrometry based pull down assay; type: cell-based
[10] = target: Protein disulfide-isomerase A4 (Homo sapiens) (UniProt P13667); experiment: Binding affinity to PDIA4 in human NCI-H23 cells at 1 uM by mass spectrometry based pull down assay; type: cell-based
Tensin-3 (Homo sapiens) = Tensin-3 (Homo sapiens) (UniProt Q68CZ2); experiment: Binding affinity to TNS3 in human NCI-H358 cells at 1 uM by mass spectrometry based pull down assay; type: cell-based
[11] = target: DnaJ homolog subfamily B member 6 (Homo sapiens) (UniProt O75190); experiment: Binding affinity to DNAJB6 in human NCI-H23 cells at 1 uM by mass spectrometry based pull down assay; type: cell-based
[12] = target: T1, 80S Ribosome (Homo sapiens); experiment: Binding affinity to RPS11 in human NCI-H23 cells at 1 uM by mass spectrometry based pull down assay; type: cell-based
[13] = target: Kelch-like ECH-associated protein 1 (Homo sapiens) (UniProt Q14145); experiment: Binding affinity to KEAP1 in human NCI-H23 cells at 1 uM by mass spectrometry based pull down assay; type: cell-based
[14] = target: GTP-binding protein Rheb (Homo sapiens) (UniProt Q15382); experiment: Binding affinity to RHEB in human NCI-H358 cells at 1 uM by mass spectrometry based pull down assay; type: cell-based
[15] = target: E3 ubiquitin-protein ligase UBR4 (Homo sapiens) (UniProt Q5T4S7); experiment: Binding affinity to UBR4 in human NCI-H358 cells at 1 uM by mass spectrometry based pull down assay; type: cell-based
[16] = target: ADP-ribose glycohydrolase OARD1 (Homo sapiens) (UniProt Q9Y530); experiment: Binding affinity to OARD1 in human NCI-H23 cells at 1 uM by mass spectrometry based pull down assay; type: cell-based
Beclin-1 (Homo sapiens) = Beclin-1 (Homo sapiens) (UniProt Q14457); experiment: Binding affinity to BECN1 in human NCI-H23 cells at 1 uM by mass spectrometry based pull down assay; type: cell-based
[17] = target: ADP-ribosylation factor-like protein 2 (Homo sapiens) (UniProt P36404); experiment: Binding affinity to ARL2 in human NCI-H358 cells at 1 uM by mass spectrometry based pull down assay; type: cell-based

Measured: Activity

Chain of Multifunctional protein CAD (Homo sapiens) (P27708 whole entry): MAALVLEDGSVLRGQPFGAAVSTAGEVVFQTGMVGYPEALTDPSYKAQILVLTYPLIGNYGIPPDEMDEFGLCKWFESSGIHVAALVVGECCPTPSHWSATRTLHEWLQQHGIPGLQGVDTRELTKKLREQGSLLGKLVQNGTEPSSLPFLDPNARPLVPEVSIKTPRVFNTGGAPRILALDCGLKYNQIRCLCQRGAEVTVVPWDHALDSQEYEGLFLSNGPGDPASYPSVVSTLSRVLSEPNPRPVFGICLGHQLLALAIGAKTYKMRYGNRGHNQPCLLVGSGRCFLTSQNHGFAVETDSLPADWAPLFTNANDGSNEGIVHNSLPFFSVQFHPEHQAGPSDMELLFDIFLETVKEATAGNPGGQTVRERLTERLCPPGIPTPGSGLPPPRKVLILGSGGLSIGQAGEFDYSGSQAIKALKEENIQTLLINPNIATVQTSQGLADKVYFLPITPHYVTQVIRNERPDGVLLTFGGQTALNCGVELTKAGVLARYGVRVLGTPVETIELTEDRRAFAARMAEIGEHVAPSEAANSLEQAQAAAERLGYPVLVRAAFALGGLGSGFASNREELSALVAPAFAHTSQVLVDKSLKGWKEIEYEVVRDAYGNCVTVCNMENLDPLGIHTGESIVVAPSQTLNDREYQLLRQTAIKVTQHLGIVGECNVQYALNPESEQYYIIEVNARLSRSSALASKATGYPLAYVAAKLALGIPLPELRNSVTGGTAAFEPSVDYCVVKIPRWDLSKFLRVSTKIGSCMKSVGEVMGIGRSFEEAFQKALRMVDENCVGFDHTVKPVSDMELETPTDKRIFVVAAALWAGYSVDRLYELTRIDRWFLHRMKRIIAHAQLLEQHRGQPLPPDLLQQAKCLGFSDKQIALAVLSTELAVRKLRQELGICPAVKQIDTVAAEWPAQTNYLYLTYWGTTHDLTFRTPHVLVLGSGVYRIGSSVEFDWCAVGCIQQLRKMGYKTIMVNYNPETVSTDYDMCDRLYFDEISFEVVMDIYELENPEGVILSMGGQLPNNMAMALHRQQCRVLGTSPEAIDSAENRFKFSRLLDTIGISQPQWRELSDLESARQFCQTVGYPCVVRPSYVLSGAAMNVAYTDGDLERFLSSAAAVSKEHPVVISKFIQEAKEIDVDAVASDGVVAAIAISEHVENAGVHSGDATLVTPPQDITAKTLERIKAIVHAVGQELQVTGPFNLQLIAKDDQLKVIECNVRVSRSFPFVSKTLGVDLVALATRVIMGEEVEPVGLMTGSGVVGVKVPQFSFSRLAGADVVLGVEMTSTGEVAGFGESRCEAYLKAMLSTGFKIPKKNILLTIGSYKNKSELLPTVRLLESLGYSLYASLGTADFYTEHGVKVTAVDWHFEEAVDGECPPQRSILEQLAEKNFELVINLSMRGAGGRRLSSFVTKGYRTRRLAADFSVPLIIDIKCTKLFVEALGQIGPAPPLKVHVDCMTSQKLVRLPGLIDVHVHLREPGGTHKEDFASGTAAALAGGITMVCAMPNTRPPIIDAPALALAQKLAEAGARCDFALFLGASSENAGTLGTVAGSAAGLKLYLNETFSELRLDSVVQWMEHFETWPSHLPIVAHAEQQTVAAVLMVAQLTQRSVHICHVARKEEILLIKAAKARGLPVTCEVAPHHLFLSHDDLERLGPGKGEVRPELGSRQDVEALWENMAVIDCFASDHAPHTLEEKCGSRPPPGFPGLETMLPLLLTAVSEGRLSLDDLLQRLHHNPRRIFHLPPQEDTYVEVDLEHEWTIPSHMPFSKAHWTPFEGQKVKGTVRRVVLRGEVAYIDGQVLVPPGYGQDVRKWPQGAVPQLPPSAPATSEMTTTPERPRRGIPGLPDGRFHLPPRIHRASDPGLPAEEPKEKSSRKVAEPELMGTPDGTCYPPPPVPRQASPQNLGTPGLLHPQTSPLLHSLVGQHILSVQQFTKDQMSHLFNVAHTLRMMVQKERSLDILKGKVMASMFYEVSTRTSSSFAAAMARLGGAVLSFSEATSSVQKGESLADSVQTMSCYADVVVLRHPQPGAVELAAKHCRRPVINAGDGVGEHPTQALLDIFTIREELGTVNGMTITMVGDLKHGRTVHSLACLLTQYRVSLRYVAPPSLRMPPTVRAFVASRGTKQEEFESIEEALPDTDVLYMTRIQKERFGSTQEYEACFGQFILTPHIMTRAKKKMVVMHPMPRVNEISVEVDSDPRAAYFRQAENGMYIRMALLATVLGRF
Chain of DnaJ homolog subfamily B member 6 (Homo sapiens) (O75190 whole entry): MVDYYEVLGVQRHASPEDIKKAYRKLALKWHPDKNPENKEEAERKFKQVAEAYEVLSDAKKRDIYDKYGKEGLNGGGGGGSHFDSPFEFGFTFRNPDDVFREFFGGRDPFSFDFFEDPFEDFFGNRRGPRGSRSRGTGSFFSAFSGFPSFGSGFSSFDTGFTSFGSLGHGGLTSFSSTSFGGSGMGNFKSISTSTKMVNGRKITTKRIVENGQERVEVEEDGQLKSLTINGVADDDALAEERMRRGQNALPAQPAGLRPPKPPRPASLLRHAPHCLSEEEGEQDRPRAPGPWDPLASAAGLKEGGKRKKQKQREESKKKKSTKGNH
Chain of Ketosamine-3-kinase (Homo sapiens) (Q9HA64 whole entry): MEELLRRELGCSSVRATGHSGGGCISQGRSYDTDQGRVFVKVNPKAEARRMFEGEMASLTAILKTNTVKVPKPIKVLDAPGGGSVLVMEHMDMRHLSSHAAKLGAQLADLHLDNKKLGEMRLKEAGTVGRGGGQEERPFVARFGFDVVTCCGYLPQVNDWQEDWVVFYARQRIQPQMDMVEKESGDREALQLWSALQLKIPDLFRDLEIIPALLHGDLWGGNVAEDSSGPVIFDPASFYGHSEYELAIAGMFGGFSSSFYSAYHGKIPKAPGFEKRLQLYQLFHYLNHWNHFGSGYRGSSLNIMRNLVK
Chain of Kelch-like ECH-associated protein 1 (Homo sapiens) (Q14145 whole entry): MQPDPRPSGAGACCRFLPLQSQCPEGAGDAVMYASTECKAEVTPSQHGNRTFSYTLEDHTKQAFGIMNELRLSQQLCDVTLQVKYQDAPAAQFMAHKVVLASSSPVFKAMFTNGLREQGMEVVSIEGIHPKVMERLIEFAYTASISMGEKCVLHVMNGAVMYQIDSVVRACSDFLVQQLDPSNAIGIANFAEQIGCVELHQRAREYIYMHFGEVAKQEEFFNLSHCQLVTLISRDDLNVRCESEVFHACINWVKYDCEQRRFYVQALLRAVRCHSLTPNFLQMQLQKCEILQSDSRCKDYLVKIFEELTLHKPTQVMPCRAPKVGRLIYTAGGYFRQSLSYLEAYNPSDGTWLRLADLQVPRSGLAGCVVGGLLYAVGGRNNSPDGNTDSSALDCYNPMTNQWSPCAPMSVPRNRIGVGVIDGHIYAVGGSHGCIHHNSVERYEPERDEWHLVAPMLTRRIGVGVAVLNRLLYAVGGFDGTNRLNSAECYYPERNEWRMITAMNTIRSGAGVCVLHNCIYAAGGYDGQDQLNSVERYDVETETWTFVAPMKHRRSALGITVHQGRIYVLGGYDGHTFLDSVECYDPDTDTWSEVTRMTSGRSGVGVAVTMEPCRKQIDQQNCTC
Chain of Beclin-1 (Homo sapiens) (Q14457 whole entry): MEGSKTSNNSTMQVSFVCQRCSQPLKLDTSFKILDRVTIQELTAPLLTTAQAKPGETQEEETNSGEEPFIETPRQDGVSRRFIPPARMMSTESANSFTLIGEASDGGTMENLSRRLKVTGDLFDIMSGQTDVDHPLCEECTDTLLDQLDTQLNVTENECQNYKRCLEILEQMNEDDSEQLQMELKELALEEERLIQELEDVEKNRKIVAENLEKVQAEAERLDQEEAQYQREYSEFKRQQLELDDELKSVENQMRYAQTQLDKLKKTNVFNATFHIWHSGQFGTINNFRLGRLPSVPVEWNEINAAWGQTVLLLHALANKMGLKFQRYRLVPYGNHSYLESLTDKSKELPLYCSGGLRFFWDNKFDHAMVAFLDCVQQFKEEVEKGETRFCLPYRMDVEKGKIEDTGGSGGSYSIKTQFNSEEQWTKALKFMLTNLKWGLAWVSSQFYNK
Chain of Protein phosphatase 1G (Homo sapiens) (O15355 whole entry): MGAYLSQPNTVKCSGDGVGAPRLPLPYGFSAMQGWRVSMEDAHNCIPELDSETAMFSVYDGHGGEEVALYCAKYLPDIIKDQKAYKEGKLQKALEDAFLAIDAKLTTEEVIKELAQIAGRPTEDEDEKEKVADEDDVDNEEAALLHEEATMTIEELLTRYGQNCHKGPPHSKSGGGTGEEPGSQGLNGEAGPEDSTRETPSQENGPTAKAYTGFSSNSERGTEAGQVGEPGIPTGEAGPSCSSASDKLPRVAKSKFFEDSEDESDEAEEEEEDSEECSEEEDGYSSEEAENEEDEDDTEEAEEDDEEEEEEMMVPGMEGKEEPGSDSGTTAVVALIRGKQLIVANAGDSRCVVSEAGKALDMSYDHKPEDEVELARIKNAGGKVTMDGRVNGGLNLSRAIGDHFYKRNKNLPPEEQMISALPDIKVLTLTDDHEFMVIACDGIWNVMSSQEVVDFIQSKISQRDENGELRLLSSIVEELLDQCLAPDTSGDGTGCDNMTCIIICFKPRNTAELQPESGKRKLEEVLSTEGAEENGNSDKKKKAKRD
Chain of ADP-ribosylation factor-like protein 2 (Homo sapiens) (P36404 whole entry): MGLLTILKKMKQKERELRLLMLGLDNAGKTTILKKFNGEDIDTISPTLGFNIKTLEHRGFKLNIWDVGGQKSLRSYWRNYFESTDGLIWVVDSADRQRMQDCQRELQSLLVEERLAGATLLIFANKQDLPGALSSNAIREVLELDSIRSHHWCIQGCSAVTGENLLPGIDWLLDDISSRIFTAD
Chain of GTP-binding protein Rheb (Homo sapiens) (Q15382 whole entry): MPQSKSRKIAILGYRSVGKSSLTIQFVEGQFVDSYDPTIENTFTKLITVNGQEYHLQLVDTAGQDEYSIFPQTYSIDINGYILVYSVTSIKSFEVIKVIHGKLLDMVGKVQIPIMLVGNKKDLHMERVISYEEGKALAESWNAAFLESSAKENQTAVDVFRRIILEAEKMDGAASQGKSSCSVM
Chain of RNA-binding protein 3 (Homo sapiens) (P98179 whole entry): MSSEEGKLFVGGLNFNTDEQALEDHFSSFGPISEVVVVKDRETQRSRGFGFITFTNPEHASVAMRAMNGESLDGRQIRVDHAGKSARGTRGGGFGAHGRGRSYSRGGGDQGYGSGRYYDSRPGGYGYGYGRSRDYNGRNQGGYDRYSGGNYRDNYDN

C=CC(=O)Nc1ccccc1Nc1nc(Nc2ccc(N3CCN(CCOCCOCCOCCNC(=O)CCCC[C@@H]4SC[C@@H]5NC(=O)N[C@@H]54)CC3)cc2)ncc1Cl
active: [1] | [2] | [3] | [4] | [5] | [6] | [7] | [8] | [9] | [10] | Tensin-3 (Homo sapiens) | [11] | [12] | [13] | [14] | [15] | [16] | Beclin-1 (Homo sapiens) | [17]
